Measured values published in article PMC4710668, “Bioactivation of food genotoxicants 5-hydroxymethylfurfural and furfuryl alcohol by sulfotransferases from human, mouse and rat: a comparative study” (Archives of Toxicology, 2014).

Tests used:
Test in all cases: HMF sulfoconjugation assay
Format in all cases: biochemical
[1] = target: T1, hSULT1A2 (Homo sapiens, UniProt P50226)
T1 construct: made in house; host or cells: Salmonella typhimurium TA1538 (cytosolic fraction, not purified)
In short: (§1)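 Cytosols of S. typhimurium TA1538 expressing single SULT forms (25–200 µg protein) were incubated with varied HMF, 50 µM PAPS, 5 mM MgCl2 in 50 mM potassium phosphate pH 7.4 at 37 °C for 30 min. SMF formed was quantified by UPLC-MS/MS against an external calibration line.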

[2] = target: T2, hSULT1A3 (Homo sapiens, UniProt P0DMM9)
T2 construct: made in house; host or cells: Salmonella typhimurium TA1538 (cytosolic fraction, not purified)
T2 sequence (P0DMM9 whole entry): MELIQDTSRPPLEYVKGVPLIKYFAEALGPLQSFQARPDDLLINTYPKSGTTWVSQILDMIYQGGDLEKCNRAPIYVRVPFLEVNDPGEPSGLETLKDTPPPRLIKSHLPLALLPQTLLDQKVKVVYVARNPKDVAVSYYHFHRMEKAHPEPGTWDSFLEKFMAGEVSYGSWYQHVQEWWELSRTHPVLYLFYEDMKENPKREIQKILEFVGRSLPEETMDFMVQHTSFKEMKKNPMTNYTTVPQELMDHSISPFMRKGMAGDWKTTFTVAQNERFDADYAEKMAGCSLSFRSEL
In short: as §1

[3] = target: T3, hSULT1C3 (Homo sapiens, UniProt Q6IMI6)
T3 construct: made in house; host or cells: Salmonella typhimurium TA1538 (cytosolic fraction, not purified)
T3 sequence (Q6IMI6 whole entry): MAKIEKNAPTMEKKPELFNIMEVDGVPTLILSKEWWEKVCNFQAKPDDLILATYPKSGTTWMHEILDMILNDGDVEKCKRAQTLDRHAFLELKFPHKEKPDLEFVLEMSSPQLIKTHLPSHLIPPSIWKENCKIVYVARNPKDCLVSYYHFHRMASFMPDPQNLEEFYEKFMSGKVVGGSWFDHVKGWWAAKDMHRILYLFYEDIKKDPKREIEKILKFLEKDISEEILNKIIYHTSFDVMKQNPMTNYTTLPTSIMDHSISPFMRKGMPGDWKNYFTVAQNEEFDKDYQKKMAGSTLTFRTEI
In short: as §1

[4] = target: T4, hSULT4A1 (Homo sapiens, UniProt Q9BR01)
T4 construct: made in house; host or cells: Salmonella typhimurium TA1538 (cytosolic fraction, not purified)
T4 sequence (Q9BR01 1-284): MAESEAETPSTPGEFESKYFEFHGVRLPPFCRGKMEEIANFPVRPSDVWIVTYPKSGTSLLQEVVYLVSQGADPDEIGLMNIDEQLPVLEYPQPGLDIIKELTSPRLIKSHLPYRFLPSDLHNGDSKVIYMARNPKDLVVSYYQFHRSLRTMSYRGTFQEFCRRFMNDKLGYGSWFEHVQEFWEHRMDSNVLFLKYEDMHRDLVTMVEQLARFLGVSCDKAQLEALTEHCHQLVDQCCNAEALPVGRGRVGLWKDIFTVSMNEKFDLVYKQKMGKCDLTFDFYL
In short: as §1

[5] = target: T5, mSult1d1 (Mus musculus, UniProt Q3UZZ6)
T5 construct: made in house; host or cells: Salmonella typhimurium TA1538 (cytosolic fraction, enzyme not purified)
T5 sequence (Q3UZZ6 whole entry): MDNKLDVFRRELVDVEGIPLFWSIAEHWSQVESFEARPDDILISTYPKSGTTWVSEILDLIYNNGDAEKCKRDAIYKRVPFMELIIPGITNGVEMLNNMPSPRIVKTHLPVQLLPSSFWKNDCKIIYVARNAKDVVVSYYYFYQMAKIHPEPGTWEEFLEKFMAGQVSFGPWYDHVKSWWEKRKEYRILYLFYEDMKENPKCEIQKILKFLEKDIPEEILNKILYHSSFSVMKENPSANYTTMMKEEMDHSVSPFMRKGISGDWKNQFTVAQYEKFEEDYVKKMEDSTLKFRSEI
In short: as §1

[6] = target: T6, rSult2b1 (Rattus norvegicus, UniProt Q29YR5)
T6 construct: made in house; host or cells: Salmonella typhimurium TA1538 (cytosolic fraction, enzyme not purified)
T6 sequence (Q29YR5 1-340): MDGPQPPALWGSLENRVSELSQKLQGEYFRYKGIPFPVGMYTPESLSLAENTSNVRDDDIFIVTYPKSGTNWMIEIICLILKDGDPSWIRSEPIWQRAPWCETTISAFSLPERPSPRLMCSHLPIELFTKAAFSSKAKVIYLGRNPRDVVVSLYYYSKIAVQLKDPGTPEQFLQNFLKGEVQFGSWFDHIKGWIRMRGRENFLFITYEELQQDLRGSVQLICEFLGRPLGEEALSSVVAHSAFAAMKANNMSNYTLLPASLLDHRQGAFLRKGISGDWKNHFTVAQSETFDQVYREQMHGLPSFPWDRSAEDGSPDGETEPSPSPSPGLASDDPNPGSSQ
In short: as §1

[7] = HMF sulfoconjugation, Michaelis-Menten fit

T1 sequence (P50226 whole entry): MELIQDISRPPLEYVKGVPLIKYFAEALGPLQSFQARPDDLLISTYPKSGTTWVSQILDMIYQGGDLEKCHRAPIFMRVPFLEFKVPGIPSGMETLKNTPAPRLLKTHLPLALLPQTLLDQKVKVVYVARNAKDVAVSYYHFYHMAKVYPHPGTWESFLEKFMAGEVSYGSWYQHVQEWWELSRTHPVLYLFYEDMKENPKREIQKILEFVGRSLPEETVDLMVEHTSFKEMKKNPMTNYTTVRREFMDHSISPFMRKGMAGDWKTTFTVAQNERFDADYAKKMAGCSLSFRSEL

O=Cc1ccc(CO)o1 [HMF, 5-Hydroxymethylfurfural]
Rate of sulfoconjugation ([1]; 0.1 mM HMF): <0.5 pmol/mg/min
Rate of sulfoconjugation ([1]; 1 mM HMF): 15.2 ± 4.5 pmol/mg/min
Rate of sulfoconjugation ([1]; 10 mM HMF): 130 ± 53 pmol/mg/min
Rate of sulfoconjugation ([1]; 100 mM HMF): 628 ± 233 pmol/mg/min
K M [1, 7]: 56.5 ± 5.4 mM
Rate of sulfoconjugation ([2]; 0.1 mM HMF): 1.2 ± 0.1 pmol/mg/min
Rate of sulfoconjugation ([2]; 1 mM HMF): 12.1 ± 1.5 pmol/mg/min
Rate of sulfoconjugation ([2]; 10 mM HMF): 117 ± 12 pmol/mg/min
Rate of sulfoconjugation ([2]; 100 mM HMF): 406 ± 39 pmol/mg/min
K M [2, 7]: 16.7 ± 1.8 mM
Rate of sulfoconjugation ([3]; 0.1 mM HMF): <0.5 pmol/mg/min
Rate of sulfoconjugation ([3]; 1 mM HMF): 1.0 ± 0.1 pmol/mg/min
Rate of sulfoconjugation ([3]; 10 mM HMF): 7.2 ± 0.9 pmol/mg/min
Rate of sulfoconjugation ([3]; 100 mM HMF): 3.6 ± 0.2 pmol/mg/min
Rate of sulfoconjugation ([4]; 0.1 mM HMF): <0.5 pmol/mg/min
Rate of sulfoconjugation ([4]; 1 mM HMF): <0.5 pmol/mg/min
Rate of sulfoconjugation ([4]; 10 mM HMF): <0.5 pmol/mg/min
Rate of sulfoconjugation ([4]; 100 mM HMF): <0.5 pmol/mg/min
Rate of sulfoconjugation ([5]; 0.1 mM HMF): 124 ± 33 pmol/mg/min
Rate of sulfoconjugation ([5]; 1 mM HMF): 1,160 ± 260 pmol/mg/min
Rate of sulfoconjugation ([5]; 10 mM HMF): 6,750 ± 1,190 pmol/mg/min
Rate of sulfoconjugation ([5]; 100 mM HMF): 22,400 ± 2,400 pmol/mg/min
K M [5, 7]: 31.9 ± 5.7 mM
Rate of sulfoconjugation ([6]; 0.1 mM HMF): <0.5 pmol/mg/min
Rate of sulfoconjugation ([6]; 1 mM HMF): <0.5 pmol/mg/min
Rate of sulfoconjugation ([6]; 10 mM HMF): <0.5 pmol/mg/min
Rate of sulfoconjugation ([6]; 100 mM HMF): <0.5 pmol/mg/min
